# Assay results as given in US9643985B2, “PCL compounds, compositions, and methods of use thereof” (The Board Of Trustees Of The University Of Illinois, priority 2013, dated 2017).
# Like-named read-outs stand apart in the source and are kept apart here.
# How the values were obtained:
# [1] = Yield of D-Luciferin (A385) after treatment with H2O2
# Excerpt: (§1) The environment inside most cellular compartments is “reducing”—a status heavily dependent on the multiple antioxidant systems that rapidly detoxify oxidants in cells such as thioredoxins and glutathione/glutathione reductase redox systems and catalase. A viable biosensor for an oxidant inside of cells and tissue should detect its target in the presence of these and other ubiquitous milieu components.
# (§2) Data were normalized to bioluminescence obtained from an identical treatment of authentic D-Luciferin (5 μM). […] In all cases, spectral contributions from oxidants were subtracted via a parallel blank experiment containing no PCL-1.
# [2] = Yield of D-Luciferin (A385) after treatment with peroxynitrite (bolus or SIN-1 derived); details: for Maximum Yield Luciferin(%): 5 μM PCL-1 in TBS, pH 8.5, 37° C., 90 minutes, A385
# Excerpt: Where applicable, spectral contributions from oxidants were subtracted via a parallel blank experiment containing no PCL-1.
# as §1, §2
# [3] = Maximum fecal concentrations after oral administration of PCL-1; assay type: in vivo, mice; details: up to a 6.25 fold increase in dose
# Description: (§3) C57BL/6 mice were irradiated at a high lethal dose of 13Gy or at a LD70/30 of 8.1Gy in independent experiments using a Cs^137 source. PCL-1 was administered via oral gavage at 40 or 60 μM/animal, 0.2 mL volume per animal. Fecal samples were collected […] from the irradiated and non-irradiated mice at different time points (pre-dose, 4, 6 and 8 hr post-dose) prior to irradiation and also on days 1, 5 and 7 post-irradiation from all animals. PCL-1 and cleaved PCL-1 (luciferin) levels were measured in the feces using LC-MS/MS method.
# Additionally with up to a 6.25 fold increase in dose a directly proportional fold increase in marker detected was not observed.
# [4] = Reactivity of PCL-1 towards other oxidants
# [5] = Rate constant of reaction with peroxynitrite, stopped-flow spectroscopy; details: 100 mM sodium phosphate, pH 7.4, 37° C. (Table 3)
# C57BL/6 mice irradiated = assay: Irradiated mouse model, fecal PCL-1/luciferin marker by LC-MS/MS; assay type: in vivo
# Description: as §3
# [6] = Safety of PCL-1 in mice, oral gavage; assay type: in vivo; details: 40 to 250 μM per animal via oral gavage
# [7] = Rate constant of reaction with H2O2; details: 100 mM sodium phosphate, pH 7.4, 37° C. (Table 3)
# [8] = system: mouse bone marrow-derived macrophages (BMDM); assay: Detection of iNOS-derived peroxynitrite in LPS-stimulated macrophages; assay type: cell-based
# Description: Bone marrow derived macrophages were prepared using 10% L929 cell (ATCC) supernatant in RPMI medium (Cellgro) made complete with 10% FBS, penicillin, streptomycin, and glutamine (Gibco). Cells were cultured 4-6 days prior to plating for experiments in opaque, white microtiter plates (Falcon) for analysis on a Wallac Victor2 luminometer (PerkinElmer).
# In order to validate the utility of PCL-1 to detect peroxynitrite in cells, mouse bone marrow-derived macrophages (BMDM) were stimulated with 50 ng/mL bacterial LPS (lipopolysaccharide) for 22 hours, 5 μM PCL-1 was added for an additional 2 hours, then D-Luciferin generated was quantified over the course of 2 hours by addition of […] recombinant luciferase, according to Example 1.
# [9] = Total bioluminescence after minimal SIN-1 or H2O2 (FIG. 1); details: 60 minutes at 37° C.
# Description: Recombinant luciferase was added to the reaction mixture and bioluminescence was detected at 612 nm for 60 minutes. D-Luciferin (5 μM) was used as a determinant of maximum yield.
# [10] = rate constant of the competing milieu component with peroxynitrite; cited from earlier work
compound,measurement,setting,value
O=C(O)[C@H]1CSC(c2nc3ccc(OCc4ccc(B(O)O)cc4)cc3s2)=N1 [PCL-1],Maximum Yield Luciferin(%),"[1]; H2O2 (100 μM) added to 5 μM PCL-1 in TBS, pH 8.5, 37° C., 90 minutes, A385 normalized to authentic D-luciferin",97%
same,yield luciferin,"[1]; H2O2 as oxidant, with added BSA",7.38±1.39%
same,H2O2-mediated conversion to luciferin,"[1]; in the presence of GSH, albumin or catalase",negligible
same,conversion to luciferin by H2O2,"[1]; in vitro, in the absence of GSH, albumin, or catalase",quantitatively converted to luciferin
same,D-luciferin obtained,"[2]; SIN-1, in the presence of BSA",45.49%
same,"effect of GSH, albumin or catalase on peroxynitrite reactivity",[2]; at the tested concentrations,≤ 10%
same,Maximum Yield Luciferin(%),[2]; peroxynitrite bolus (10 μM),95%
same,Maximum Yield Luciferin(%),[2]; peroxynitrite from SIN-1 (100 μM),96%
same,yield of D-Luciferin,"[2]; peroxynitrite, in the presence of 66.5 mg/mL BSA (1.0 mM)",87.5±7.48%
same,dose dependence of fecal detection,[3],not dose dependent
same,"sensitivity towards NO, superoxide radical anion, HOCl, and singlet oxygen",[4],insensitive
same,kONOO−,[5],9.8 (±0.1) × 10^5 M^−1s^−1
same,increase in PCL-1 and % cleaved PCL-1 levels in the feces,"C57BL/6 mice irradiated; 8.1Gy irradiation, until day 7",two-fold or more increase
same,increase in the level of the marker in fecal samples vs control,"C57BL/6 mice irradiated; 13Gy, days 5 to 7, PCL-1 oral gavage",about 3 fold
same,signs of toxicity,[6],no signs of toxicity were observed
same,kH2O2,[7],1.2 (±0.3) M^−1s^−1
same,D-Luciferin signal,"[8]; BMDMs from iNOS^−/− animals, LPS",no signal above baseline
same,D-Luciferin production over the baseline value,"[8]; wild-type macrophages, LPS 50 ng/mL, 5 μM PCL-1",nearly two-fold increase
"O=C(O)[C@H]1CSC(c2nc3ccc(OCc4ccc(B(O)O)c(F)c4)cc3s2)=N1 [PCL-F, (S)-2-(6-(4-borono-3-fluorobenzyloxy)benzo[d]thiazol-2-yl)-4,5-dihydrothiazole-4-carboxylic acid]",resistance to hydrolysis,"[9]; 5 μM, bioluminescence at 612 nm",resistant to hydrolysis in comparison to PCL-1
same,selectivity in detecting peroxynitrite vs. hydrogen peroxide,[9]; SIN-1 (2.5 μM) or H2O2 (25 μM),more selective than PCL-1
same,reactivity with H2O2,"[1]; 5 μM in TBS, pH 8.5, 37° C., 100 μM H2O2, 90 minutes, compared to PCL-1",Little reactivity
same,glutathione concentration until which reactivity with SIN-1 was retained,"[2]; 5 μM, 100 μM SIN-1, 90 minutes",1 to 5 mM
same,kONOO−,[5],4.5 (±0.2) × 10^5 M^−1s^−1
same,kH2O2,[7],0.11 (±0.02) M^−1s^−1
N[C@@H](CCC(=O)N[C@@H](CS)C(=O)NCC(=O)O)C(=O)O [glutathione],kONOO−,[10],1400 M⁻¹ s⁻¹
bovine serum albumin: milieu component competing for oxidants,kONOO−,[10],8310 M⁻¹ s⁻¹
